The text below walks through data of US20220177446A1, “ALKYNE COMPOUNDS AS IRAK INHIBITORS, PREPARATION METHODS AND MEDICINAL USES THEREOF” (Eternity Bioscience Inc., priority 2020, published 2022).

Assay [1] addresses T1, CYP2D6 (Homo sapiens, UniProt P10635).
T1 construct: tissue Corning Co, LTD; host or cells: human liver microsomes
The assay is described as follows: In vitro study for inhibiting cytochrome P450 (CYP) 2D6 using human liver microsomes. Format: in vitro ADME. Conditions: human liver microsomes 0.1 mg/ml, probe substrate dextromethorphan 4 μM, 30 min at 37° C.; read-out: IC50 of inhibition on CYP2D6. The protocol:
Potassium phosphate buffer ([…] from Sangon Biotech. Dilute 20×PBS to 100 mM PBS buffer. The stock solutions of NADPH was 5 mM and the final concentration in the incubation system was 1 mM. The stock solution of MgCl2 were 7.5 mM and t the final concentration in the incubation system was 3 mM.
1.1 Preparation of probe substrate solution: The stock solutions of probe substrates of dextromethorphan (Sigma Cat No. D9684) was prepared by using DMSO and the final concentration in incubation system was 4 μM.
1.2 Preparation of selective inhibitors solution: The 30 mM stock solutions of inhibitor of CYP isoforms of Quinidine (Sigma, Q0750) was prepared by using DMSO and the final concentration in incubation system were 30, 10, 3, 1, 0.3, 0.03, 0.003 μM.
1.3 Preparation of test compound 5 and 6 solution: The 30 mM test compound 5 and 6 solutions were prepared by using DMSO and the final concentration in incubation system were 30, 10, 3, 1, 0.3, 0.03, 0.003 μM.
1.4 Human liver microsomes (HLM) were purchased by Corning Co, LTD. Diluted the HLM into 0.25 mg/ml and the final concentration was 0.1 mg/ml.
Added 20 μL working solutions of test compound 5 or 6 or selective inhibitors into a 96-well plate. Then added 40 μL of the HLM working solution and 20 μL of the substrate working solution. […] Samples are now ready for LC/MS/MS analysis.

For assay [2], the target named is T2, IRAK4 (Homo sapiens, UniProt Q9NWZ3).
T2 construct: host or cells: human peripheral blood mononuclear cells (PBMCs)
T2 sequence (Q9NWZ3 1-460): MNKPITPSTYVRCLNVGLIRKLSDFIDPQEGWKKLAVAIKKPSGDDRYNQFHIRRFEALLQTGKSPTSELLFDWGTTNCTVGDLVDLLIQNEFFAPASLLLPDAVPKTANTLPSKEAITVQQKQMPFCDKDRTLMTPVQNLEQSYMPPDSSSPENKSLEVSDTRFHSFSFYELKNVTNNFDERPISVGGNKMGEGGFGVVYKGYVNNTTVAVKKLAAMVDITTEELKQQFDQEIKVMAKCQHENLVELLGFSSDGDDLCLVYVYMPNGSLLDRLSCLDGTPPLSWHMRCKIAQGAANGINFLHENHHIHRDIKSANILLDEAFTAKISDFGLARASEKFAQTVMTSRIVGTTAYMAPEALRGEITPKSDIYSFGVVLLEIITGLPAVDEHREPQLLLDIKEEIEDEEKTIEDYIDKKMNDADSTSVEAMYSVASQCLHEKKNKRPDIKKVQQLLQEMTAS
Put plainly: IRAK4 Human PBMC TNFα Cell Based Assay (AlphaLISA). Conditions: TNFα measured. The protocol: In this assay, serially diluted compounds were incubated with 1×10^4 human peripheral blood mononuclear cells (PBMCs) from STEMCELL (Cat #70025.1) per well of 384-well plate (Fisher Scientific; 50-905-2761) and cultured with TexMACS medium (Miltenyi, Cat #130-097-196), stimulated by R848 (0.5 μM) or IL-1β (10 ng/ml). Plates were covered with lids and incubated for 4 h (R848, Fisher Scientific, Cat #NC9801605) or 24 h (IL-1β, Fisher Scientific, Cat #ENRIL1BI) at 37° C. in a humidified tissue-culture incubator. After a brief centrifugation at 1000 rpm for 5 minutes, 5 μl of culture medium was used for the measurement of the TNFα amount using TNFα (human) AlphaLISA Detection Kit (PerkinElmer, Cat #AL208C) according to manufacturer's protocol. A biotinylated anti-TNFα antibody binds to the Streptavidin-coated Donor beads while another anti-TNFα antibody is conjugated to AlphaLISA Acceptor beads. In the presence of the TNFα, the beads come into close proximity. The excitation of the Donor beads causes the release of singlet oxygen molecules that triggers a cascade of energy transfer in the Acceptor beads, resulting in a sharp peak of light emission at 615 nm. AlphaLISA assay plates were read using PHERAstar. Percentage of inhibition was calculated as below:
(§1) % inhibition=(1−(Reading(Sample)−Reading(Negative Control))/(Reading(Positive Control)−Reading(Negative Control)))×100%
The 0% inhibition value comes from the Reading of Positive Control wells having 0 nM compound. The 100% inhibition value comes from the Reading of Negative Control wells having no R848 or IL-1β.
(In general: Bead proximity is the source of the signal in Alpha formats.)

The target of assay [3] is T3, full length human IRAK4 protein (Homo sapiens, UniProt Q9NWZ3).
T3 construct: Purified full length human IRAK4 protein; purchased Signal Chem I12-10G-125
T3 sequence (Q9NWZ3 1-460): T2 sequence (Q9NWZ3 1-460)
The assay is described as follows: IRAK4 Biochemical Assay (Promega ADP-Glo IRAK4 Kinase Enzyme System). Conditions: 3 nM enzyme, 250 μM ATP; for IC50: 2 μM MBP, 60 min at room temperature; for IRAK4 Biochemical Assay Max Inhibition (%): maximum inhibition. The protocol: For the routine compound screening, an IRAK4 kinase assay was performed as follows using Promega ADP-Glo IRAK4 Kinase Enzyme System (Promega, Cat #2198-AD). Purified full length human IRAK4 protein (Signal Chem; Cat #I12-10G-125) was diluted to a concentration 6 nM in assay buffer (25 mM MOPS, pH 7.2, 12.5 mM β-glycerol-phosphate, 25 mM MgCl2, 5 mM EGTA, 2 mM EDTA, 0.0025% Brij-35, add 0.25 mM DTT to Kinase Assay Buffer prior to use) containing IRAK4 inhibitor at 2× the final concentration in 0.4% DMSO. The reaction was performed in PerkinElmer Proxiplate-384 plus white plate (Fisher Scientific, Cat #50-905-2761) and started by the addition of an equal volume of the assay buffer containing 4 μM native swine myelin basic protein (MBP) and 500 μM ATP to achieve a final concentration of 3 nM enzyme, 2 μM MBP, 250 μM ATP, 1× compound, and 0.2% DMSO. The kinase reaction was allowed to run for 60 min at room temperature (25-27° C.), then 5 μL of ADP-Glo was added to the reaction in each well followed by 40 minutes-incubation at RT. To detect converted […], 10 μL Detection Buffer was added into each well and Incubate at RT in dark for 30 minutes. Finally, luminescence was read using Tecan with 1000 ms of integration time. The luminescent signal positively correlates with ADP amount and kinase activity. Data was analyzed by GraphPad Prism and IC50 was calculated using function log(inhibitor) vs. response—Variable slope (four parameters). Percentage of inhibition was calculated as below:
as §1
The 0% inhibition value comes from the Reading of Positive Control wells having 0 nM compound. The 100% inhibition value comes from the Reading of Negative Control wells having no IRAK4 kinase.
In general terms: ADP-Glo first removes unused ATP, then detects ADP through luciferase.

The mark [4] stands for this setting: human PBMCs stimulated by IL-1β (10 ng/ml), 24 h, read-out: IRAK4 PBMC AlphaLISA IL-1β (IC50).
The mark [5] stands for this setting: human PBMCs stimulated by R848 (0.5 μM), 4 h, read-out: IRAK4 PBMC AlphaLISA R848 (IC50).

Like-named read-outs stand apart in the source and are kept apart here.

T1 sequence (P10635 whole entry): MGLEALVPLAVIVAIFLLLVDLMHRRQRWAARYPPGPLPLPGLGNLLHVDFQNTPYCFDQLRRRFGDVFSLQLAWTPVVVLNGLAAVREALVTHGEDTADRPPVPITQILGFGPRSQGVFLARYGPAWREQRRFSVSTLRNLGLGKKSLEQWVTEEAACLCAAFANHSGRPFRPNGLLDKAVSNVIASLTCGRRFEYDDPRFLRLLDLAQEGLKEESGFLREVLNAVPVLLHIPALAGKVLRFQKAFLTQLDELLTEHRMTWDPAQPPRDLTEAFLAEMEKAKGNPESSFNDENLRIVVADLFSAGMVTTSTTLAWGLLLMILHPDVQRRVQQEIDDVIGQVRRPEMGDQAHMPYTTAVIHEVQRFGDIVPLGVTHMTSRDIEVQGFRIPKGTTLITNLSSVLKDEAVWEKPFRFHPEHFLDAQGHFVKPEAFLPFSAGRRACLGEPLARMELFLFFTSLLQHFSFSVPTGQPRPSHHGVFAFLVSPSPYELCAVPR

By IC50 is commonly meant the concentration that inhibits the measured activity by half. Turning to `CC[C@@H]1[C@H](F)C(=O)N[C@@H]1COc1ncc(C#CCN(C)C)c2cc(C(N)=O)c(OC)cc12` [Example 5, 4-(3-(dimethylamino)prop-1-yn-1-yl)-1-(((2S,3S,4S)-3-ethyl-4-fluoro-5-oxopyrrolidin-2-yl)methoxy)-7-methoxyisoquinoline-6-carboxamide], the IC50 was over 30000 nM in assay [1], 2.2 nM in assay [2] (setting [4]), 0.7 nM in assay [2] (setting [5]) and 6.2 nM in assay [3]. Further, the “IRAK4 Biochemical Assay Max Inhibition (%)” value in assay [3] was 100.0%.

For `CC[C@@H]1[C@H](F)C(=O)N[C@@H]1COc1ncc(C#CCOC)c2cc(C(N)=O)c(OC)cc12` [Example 6, 1-(((2S,3S,4S)-3-ethyl-4-fluoro-5-oxopyrrolidin-2-yl)methoxy)-7-methoxy-4-(3-methoxyprop-1-yn-1-yl)isoquinoline-6-carboxamide], the IC50 was 13700 nM in assay [1], 1.3 nM in assay [2] (setting [4]), 1 nM in assay [2] (setting [5]) and 14.5 nM in assay [3]. In addition, the “IRAK4 Biochemical Assay Max Inhibition (%)” value in assay [3] was determined as 100.0%.

In the case of `CC[C@@H]1[C@H](F)C(=O)N[C@@H]1COc1ncc(C#CC(C)(C)N(C)C)c2cc(C(N)=O)c(OC)cc12` [Example 34, 4-(3-(dimethylamino)-3-methylbut-1-yn-1-yl)-1-(((2S,3S,4S)-3-ethyl-4-fluoro-5-oxopyrrolidin-2-yl)methoxy)-7-methoxyisoquinoline-6-carboxamide], the values for the IC50 in assay [2] (setting [4]), in assay [2] (setting [5]) and in assay [3] were 46 nM, 32 nM and 8.9 nM, respectively. Also, the “IRAK4 Biochemical Assay Max Inhibition (%)” value in assay [3] stood at 92.0%.

With `CC[C@@H]1[C@H](F)C(=O)N[C@@H]1COc1ncc(C#CC(C)(C)N(C)C)c2cc(C(N)=O)c(OC(C)C)cc12` [Example 35, 4-(3-(dimethylamino)-3-methylbut-1-yn-1-yl)-1-(((2S,3S,4S)-3-ethyl-4-fluoro-5-oxopyrrolidin-2-yl)methoxy)-7-isopropoxyisoquinoline-6-carboxamide], the half-maximal inhibitory concentration (IC50) in assay [2] (setting [4]) came to 110 nM; in assay [2] (setting [5]) it was 36 nM; in assay [3], 39 nM. The “IRAK4 Biochemical Assay Max Inhibition (%)” value in assay [3] was 93.0%.
